US11911396B2, “Use of compound in preparation of drug for treating cerebral small vessel disease” (GUANGZHOU CELLPROTEK PHARMACEUTICAL CO., LTD, priority 2017, dated 2024)

Tests used:
[1] = test system: IL-6; test: Western blot of IL-6 in prefrontal cortex brain tissue, acute hypobaric hypoxia model; assay type: in vivo, cynomolgus monkeys; details: FIGS. 3A and 3B
Excerpt: FIG. 3. […] A. Protein expression of inflammatory factors IL-6, IL-1β and TNF-α in the brain tissue of the prefrontal cortex of cynomolgus monkeys; B. Statistics of protein relative gray scan values. NN: Normobaric Normoxia group (N=3); HH: Hypobaric Hypoxia group (N=3); HH+Triol: Hypobaric Hypoxia with Triol administration group (N=3); HH+PROG: Hypobaric Hypoxia with control drug administration group (N=3). The gray value was obtained by scanning with Image Lab software, and the relative value was obtained after normalizing with α-Tubulin. One-way ANOVA analysis and Dunnutt's t test were used to perform statistical tests, and in the latter each group was compared with the HH group, *, p<0.05; **, p<0.01.
1) Preparation of protein samples (see the instructions of M-PER protein lysate): After the cells had been processed for the specified time, the medium was aspirated and then washed with 4° C. pre-chilled PBS (0.01M pH7.2˜7.3) for 3 times. […] 2) BCA protein quantification (see the instructions of BCA protein quantification kit): corresponding components were added to a 96-well detection plate by the ratio of quantification reagent A solution:B solution:ddH2O:protein=100:2:7.5:5, and albumin standards diluted in gradient concentration were added to draw a standard curve. […] After the reaction, the absorbance of each well at a wavelength of 562 nm was detected using a microplate reader. […]

[2] = test system: Iba1; test: Immunofluorescence of Iba1 in prefrontal cortex brain tissue, acute hypobaric hypoxia model; assay type: in vivo, cynomolgus monkeys; details: FIG. 5
Excerpt: FIG. 5. […] A. Immunofluorescence imaging of CD163 and Iba-1 in the brain tissue of cynomolgus monkeys. B. Statistics of relative fluorescence intensity of CD163 and Iba-1. C. Correlation analysis of relative fluorescence intensity of CD163 and Iba-1. NN: Normobaric Normoxia group; HH: Hypobaric Hypoxia group; HH+Triol: Hypobaric Hypoxia with Triol administration group; HH+PROG: Hypobaric Hypoxia with progesterone administration group. One-way ANOVA analysis and Dunnutt's t test were used to perform statistical tests, and in the latter each group was compared with the HH group, ***, p<0.001.
The thickness of paraffin sections was 5 μm. For fresh paraffin sections, the sections were dried at 37° C. overnight and then dried at 55° C. for 30 minutes. The sections were quickly placed in xylene for dewaxing. After fully dewaxing with xylene for 10 min for 3 times, absolute ethanol-95% ethanol-90% ethanol-80% ethanol-70% ethanol-50% ethanol-ddH2O were successively used for gradient rehydration. After rehydration, the sections were placed in EDTA antigen repair solution for microwave high temperature repair. After the repair was completed, it was allowed naturally cool down to room temperature. […] NIS-Elements Analysis software was used to analyze the fluorescence intensity of confocal images, which was then normalized with the fluorescence intensity per unit area according to the built-in scale. […]

C[C@@]12CCCC1C1C[C@@H](O)[C@@]3(O)C[C@@H](O)CC[C@]3(C)C1CC2 (stereo partly drawn) [Triol, 5α-androst-3β,5,6β-triol]
expression level of IL-6 [1]: significantly reduced | Iba1 expression [2]: down-regulation
